Test: xn = mol fraction of the nth substance listed
Settings: 328.15 K, Liquid

CCCCCCCl [1-chlorohexane] + CCCCCCCC
mass density [kg/m3]
Settings | x2 = 0 | x2 = 0.1016 | x2 = 0.1996 | x2 = 0.3153 | x2 = 0.3948 | x2 = 0.4862 | x2 = 0.5938 | x2 = 0.6966 | x2 = 0.794 | x2 = 0.9001
20370 kPa | – | – | – | – | – | 773.56 | 755.51 | 739.04 | 723.83 | 707.88
22390 kPa | 865.82 | 845.55 | 826.81 | 805.24 | 791.08 | 775.27 | 757.24 | 740.74 | 725.52 | 709.57
24420 kPa | 867.51 | 847.24 | 828.51 | 806.94 | 792.78 | 776.96 | 758.91 | 742.4 | 727.18 | 711.21
26450 kPa | 869.18 | 848.91 | 830.19 | 808.59 | 794.43 | 778.61 | 760.54 | 744.05 | 728.79 | 712.83
28470 kPa | 870.8 | 850.52 | 831.8 | 810.22 | 796.05 | 780.22 | 762.15 | 745.64 | 730.38 | 714.38
29490 kPa | 871.6 | 851.32 | 832.59 | 811.01 | 796.83 | 781.01 | 762.93 | 746.43 | 731.16 | 715.18
30500 kPa | 872.4 | 852.13 | 833.4 | 811.81 | 797.63 | 781.8 | 763.73 | 747.21 | 731.95 | 715.96
32530 kPa | 873.95 | 853.71 | 834.95 | 813.36 | 799.19 | 783.35 | 765.25 | 748.74 | 733.44 | 717.46
34550 kPa | 875.49 | 855.25 | 836.5 | 814.87 | 800.71 | 784.87 | 766.77 | 750.23 | 734.96 | 718.95
36580 kPa | 877.05 | 856.79 | 838.03 | 816.42 | 802.23 | 786.39 | 768.27 | 751.74 | 736.44 | 720.42
38600 kPa | 878.53 | 858.28 | 839.51 | 817.9 | 803.7 | 787.85 | 769.73 | 753.2 | 737.86 | 721.85
39620 kPa | 879.31 | 859.03 | 840.27 | 818.64 | 804.43 | 788.56 | 770.44 | 753.9 | 738.58 | 722.55

Reference: the NIST ThermoML archive (doi:10.1016/j.jct.2005.09.003)
